Measured values taken from patent US8846024B2, “3′-[(2Z)-[1-(3,4-dimethylphenyl)-1,5-dihydro-3-methyl-5-oxo-4H-pyrazol-4-ylidene]hydrazino]-2′-hydroxy-[1,1′-biphenyl]-3-carboxylic acid bis-(monoethanolamine)” (GlaxoSmithKline LLC, priority 2002, dated 2014).
In brackets after ≈: the same amount, converted by molar mass. Read-outs that look alike come from different tables or passages of the source.

How the values were obtained:
[1] = Relative solubilities in water, 0.1% HCl and methanol; format: physicochemical; details: 25 °C, 25 deg
Protocol: The solubility of 3′-[(2Z)-[1-(3,4-dimethylphenyl)-1,5-dihydro-3-methyl-5-oxo-4H-pyrazol-4-ylidene]hydrazino]-2′-hydroxy-[1,1′-biphenyl]-3-carboxylic acid as the free acid (Compound A) and as the bis-(monoethanolamine) salt (Compound B) was determined in three different systems: water, 0.1 HCl and methanol.

[2] = Solubility of the free acid in water (stated in description); format: physicochemical; details: stated as approximate in the description
[3] = organic solvent or mixture, solvent methanol, read-out: Solubility at 25 deg, methanol
[4] = simulated gastric fluid, solvent 0.1% HCl, read-out: Solubility at 25 deg, 0.1% HCl
[5] = solvent water, read-out: Solubility at 25 deg, Water

| Structure (SMILES) | solubility [1, 3] | solubility [1, 4] | solubility [1, 5] | solubility in water [2] |
| --- | --- | --- | --- | --- |
| CC1=NN(c2ccc(C)c(C)c2)C(=O)/C1=N\Nc1cccc(-c2cccc(C(=O)O)c2)c1O [Compound A, 3′-[(2Z)-[1-(3,4-dimethylphenyl)-1,5-dihydro-3-methyl-5-oxo-4H-pyrazol-4-ylidene]hydrazino]-2′-hydroxy-[1,1′-biphenyl]-3-carboxylic acid] | 1900 µg/mL (≈ 4290 µM) | < 1 µg/mL | < 1 µg/mL | approximately 5 micrograms per milliliter |
| CC1=NN(c2ccc(C)c(C)c2)C(=O)/C1=N\Nc1cccc(-c2cccc(C(=O)O)c2)c1O.NCCO.NCCO [Compound B, 3′-[(2Z)-[1-(3,4-dimethylphenyl)-1,5-dihydro-3-methyl-5-oxo-4H-pyrazol-4-ylidene]hydrazino]-2′-hydroxy-[1,1′-biphenyl]-3-carboxylic acid bis-(monoethanolamine)] | 6400 µg/mL | < 1 µg/mL | 14200 µg/mL | – |
